Experimental data taken from patent US20240262826A1, “WILD TYPE KIT INHIBITORS” (Blueprint Medicines Corporation, priority 2022, published 2024).
pIC50: −log10 of the molar value.

Experiments:
[1] = target: human P-glycoprotein (P-gp, MDR1) (Homo sapiens (Human), UniProt P08183); assay: MDCK-MDR1 cell monolayer drug transport assay (P-gp efflux ratio); assay type: in vitro ADME; conditions: pH 7.4, MDCK-MDR1 cells, 1 uM concentration of compound, read-out: Pgp Efflux Ratio, 1 uM
Protocol: The potential for compounds prepared according to the examples to be substrates of P-gp was evaluated using in vitro on Multidrug Resistance Mutation 1-Mardin-Darby Canine Kidney (MDCK-MDR1)) (Mardin-Darby Canine Kidney) cell monolayers overexpressing P-gp grown on permeable supports.
Preparation for cell seeding: MDCK-MDR1 cell culture medium consisting of Dulbecco's Modified Eagle's Medium (DMEM) with high glucose and L-glutamine supplemented with: 10% FBS, 0.1 mg/mL of streptomycin, 0.6 μg/mL of Kanamycin sulfate and 100 units of penicillin was prepared. 50 μL of culture medium was added to each well of the Transwell insert. The Transwell insert was removed from the reservoir and 25 mL of culture medium was added. After incubation at 37° C., 5% CO2 for 1 hour, the plates were ready for cell seeding. The cells were cultivated in T-75 flasks in a cell culture incubator set at 37° C., 5% CO2, 95% relative humidity until they reached 80-90% confluence before detaching and splitting. The cultivated cells were rinsed in T-75 flasks with 5 mL PBS and aspirated off, and then 1.5 mL trypsin/EDTA was added and incubated at 37° C. for approximately 5 to 10 minutes or until the cells detach and float. The trypsin/EDTA was inactived by adding excess serum containing medium. The cell suspension was transferred to a conical tube and the cells pelleted by centrifugation at 120×g for 10 minutes. The cells were resuspended in seeding medium at a density of 1.56×10^6 cells/mL. This cell concentration was used to seed 5.45×10^5 cells/cm^2.
Seeding and feeding of MDCK-MDR1 cells into transwell plates: 50 μL of the above cell suspension was added to each well of a previously prepared Transwell plate and the plate was incubated for 4-8 days, replacing the medium every other day beginning no sooner than 48 hours after initial plating. The medium must be replaced on the day before conducting the experiment, and the procedure for medium changes was carried out as follows. The plate was removed from the incubator and placed in a hood. The medium was aspirated from a reservoir and each Transwell was inserted. 100 μL of culture medium was added to each well of the Transwell inserts and 25 mL of culture medium to reservoir tray. The plate was returned to the incubator.
Assessment of cell monolayer integrity: When the 4-day cultured MDCK-MDR1 cells reached confluence and were differentiated, the medium was removed from the reservoir and Transwell inserts. 100 μL of prewarmed culture medium was added to each transwell insert and 25 mL was added to the reservoir tray. The electrical resistance across the monolayer was measured using a Millicell Epithelial Volt-Ohm measuring system. The electrical resistance for each well was measured and then the plate was returned to the incubator. TEER values were calculated using this formula: TEER measurement (ohms)×Area of membrane (cm2)=TEER value (ohm cm2). Any monolayer with a TEER value <42 ohms·cm2, indicating poor monolayer formation, was discarded.
Performing the drug transport assay: The MDCK-MDR1 plate was removed from the incubator and the monolayer was washed, exchanging the volume two times using pre-warmed HBSS (Hank's balanced salt solution) (10 mM HEPES, pH 7.4). The plate was then incubated at 37° C. for 30 minutes. A 1 μM compound working solution was prepared as follows: Added […] of stock solution (10 mM in DMSO) of test compound and control compounds (Metoprolol, Prazosin and Imatinib) in one 96 well plate, then added 98 μL of DMSO into the same well to obtain 0.2 mM stock solutions (note a stock solution was further diluted 1:10 for eventually making a 0.1 uM compound working solution). Transfered 3 μL of 0.2 mM solution into 597 μL of transport buffer in one 96 well plate to prepare the 1 μM compound working solution. The plate was shaken at 1000 rpm for 10 min.

[2] = target: wild type c-kit (Homo sapiens (Human), UniProt P10721); assay: PathScan phospho c-kit (Tyr719) sandwich ELISA in SCF-stimulated M-07e cells (pKIT assay); assay type: cell-based; conditions: ELISA assay (values not marked *)
Sequence of wild type c-kit (P10721 26-976): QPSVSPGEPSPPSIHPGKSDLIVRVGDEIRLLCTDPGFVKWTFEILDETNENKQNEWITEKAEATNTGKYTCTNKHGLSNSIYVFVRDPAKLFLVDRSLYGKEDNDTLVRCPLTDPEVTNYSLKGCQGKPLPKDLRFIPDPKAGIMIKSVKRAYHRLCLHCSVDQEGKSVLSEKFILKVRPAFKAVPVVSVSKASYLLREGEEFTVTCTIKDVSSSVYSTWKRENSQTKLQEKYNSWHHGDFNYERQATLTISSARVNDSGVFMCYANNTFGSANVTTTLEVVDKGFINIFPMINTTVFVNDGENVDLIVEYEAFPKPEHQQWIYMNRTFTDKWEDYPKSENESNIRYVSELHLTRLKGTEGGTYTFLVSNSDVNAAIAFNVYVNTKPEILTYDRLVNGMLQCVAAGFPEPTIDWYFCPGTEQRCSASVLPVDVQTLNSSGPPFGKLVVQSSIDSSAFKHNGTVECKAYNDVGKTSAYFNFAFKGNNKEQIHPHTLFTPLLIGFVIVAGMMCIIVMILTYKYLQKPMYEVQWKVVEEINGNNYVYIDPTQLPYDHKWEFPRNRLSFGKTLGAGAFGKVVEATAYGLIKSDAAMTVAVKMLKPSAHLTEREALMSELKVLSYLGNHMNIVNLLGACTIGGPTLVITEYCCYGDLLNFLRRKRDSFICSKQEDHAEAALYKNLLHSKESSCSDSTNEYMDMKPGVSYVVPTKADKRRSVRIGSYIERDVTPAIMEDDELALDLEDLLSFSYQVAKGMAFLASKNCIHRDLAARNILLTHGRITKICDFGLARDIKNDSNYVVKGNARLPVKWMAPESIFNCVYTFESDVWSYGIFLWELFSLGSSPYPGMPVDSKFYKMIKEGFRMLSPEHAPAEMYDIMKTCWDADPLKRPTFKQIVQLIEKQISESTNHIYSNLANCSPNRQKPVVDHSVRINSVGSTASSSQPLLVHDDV
Method in brief: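 Tyr719-phosphorylated c-kit was measured by colorimetric (TMB) sandwich ELISA in lysates of M-07e cells. Cells were starved 4 h without serum or GM-CSF, dosed 60 min at 37 °C with compound (8 points, duplicate, 0.25% DMSO), and stimulated 10 min with human SCF (500 ng/mL as added). IC50 values came from 4-parameter logistic regression.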

Sequence of human P-glycoprotein (P-gp, MDR1) (P08183 whole entry): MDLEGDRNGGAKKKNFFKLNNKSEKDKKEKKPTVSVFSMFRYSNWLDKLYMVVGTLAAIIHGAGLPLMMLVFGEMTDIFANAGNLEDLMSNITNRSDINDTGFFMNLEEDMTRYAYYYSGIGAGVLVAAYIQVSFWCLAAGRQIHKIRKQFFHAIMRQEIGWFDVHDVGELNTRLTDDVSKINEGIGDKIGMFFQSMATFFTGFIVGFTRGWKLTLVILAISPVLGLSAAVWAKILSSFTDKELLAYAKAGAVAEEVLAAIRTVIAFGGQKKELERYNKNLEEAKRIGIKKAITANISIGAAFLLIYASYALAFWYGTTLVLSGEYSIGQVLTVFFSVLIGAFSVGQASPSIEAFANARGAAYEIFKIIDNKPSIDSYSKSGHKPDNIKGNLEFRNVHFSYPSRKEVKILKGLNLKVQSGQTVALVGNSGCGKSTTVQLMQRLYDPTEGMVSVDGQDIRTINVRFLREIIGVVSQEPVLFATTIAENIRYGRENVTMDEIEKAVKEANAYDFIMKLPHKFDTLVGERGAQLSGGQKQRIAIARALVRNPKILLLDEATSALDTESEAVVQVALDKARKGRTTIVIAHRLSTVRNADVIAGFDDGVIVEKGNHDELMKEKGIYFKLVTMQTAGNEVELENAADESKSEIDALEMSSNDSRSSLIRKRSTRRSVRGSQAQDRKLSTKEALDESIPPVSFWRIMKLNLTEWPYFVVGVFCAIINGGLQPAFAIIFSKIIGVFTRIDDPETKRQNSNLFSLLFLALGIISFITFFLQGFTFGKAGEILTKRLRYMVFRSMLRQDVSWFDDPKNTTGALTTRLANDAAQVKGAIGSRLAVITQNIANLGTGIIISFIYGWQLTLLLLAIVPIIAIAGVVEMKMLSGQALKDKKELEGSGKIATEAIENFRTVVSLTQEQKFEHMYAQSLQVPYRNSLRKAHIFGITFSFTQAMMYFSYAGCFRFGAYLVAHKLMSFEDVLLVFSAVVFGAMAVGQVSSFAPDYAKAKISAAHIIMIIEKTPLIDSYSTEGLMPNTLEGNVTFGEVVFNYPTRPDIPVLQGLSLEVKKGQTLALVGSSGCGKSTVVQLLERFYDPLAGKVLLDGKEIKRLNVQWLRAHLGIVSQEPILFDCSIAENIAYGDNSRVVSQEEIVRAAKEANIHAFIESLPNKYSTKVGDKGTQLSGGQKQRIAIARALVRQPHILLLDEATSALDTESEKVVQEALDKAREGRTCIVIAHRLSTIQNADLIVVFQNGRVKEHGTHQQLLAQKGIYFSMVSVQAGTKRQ

Compound | efflux ratio at 2 h, 1 µM [1] | pIC50 [2]
COC(=O)N1CC(n2nnc(-c3ccc(C)c(NC(=O)c4cnn5ccc(N6CCOCC6)cc45)c3)n2)C1 [Example 69, methyl 3-(5-(4-methyl-3-(5-morpholinopyrazolo[1,5-a]pyridine-3-carboxamido)phenyl)-2H-tetrazol-2-yl)azetidine-1-carboxylate] | 11.7 | 7.30
COC(=O)N1CC(c2cnn(-c3ccc(C)c(NC(=O)c4cnn5ccc(N(C)CCO)cc45)c3)n2)C1 [Example 84, methyl 3-(2-(3-(5-((2-hydroxyethyl)(methyl)amino)pyrazolo[1,5-a]pyridine-3-carboxamido)-4-methylphenyl)-2H-1,2,3-triazol-4-yl)azetidine-1-carboxylate] | 51.9 | 7.66
COC(=O)N1CC(n2nnc(-c3ccc(C)c(NC(=O)c4cnn5ccc(NCC(C)(C)O)cc45)c3)n2)C1 [Example 89, methyl 3-(5-(3-(5-((2-hydroxy-2-methylpropyl)amino)pyrazolo[1,5-a]pyridine-3-carboxamido)-4-methylphenyl)-2H-tetrazol-2-yl)azetidine-1-carboxylate] | 43.1 | 7.15
COC(=O)N1CC(n2nnc(-c3ccc(C)c(NC(=O)c4cnn5ccc(N6CC[C@H]6CO)cc45)c3)n2)C1 [Example 90, methyl (S)-3-(5-(3-(5-(2-(hydroxymethyl)azetidin-1-yl)pyrazolo[1,5-a]pyridine-3-carboxamido)-4-methylphenyl)-2H-tetrazol-2-yl)azetidine-1-carboxylate] | 33.9 | 7.06
COC(=O)N1CC(n2nnc(-c3ccc(C)c(NC(=O)c4cnn5ccc(NCC(C)(F)F)cc45)c3)n2)C1 [Example 92, methyl 3-(5-(3-(5-((2,2-difluoropropyl)amino)pyrazolo[1,5-a]pyridine-3-carboxamido)-4-methylphenyl)-2H-tetrazol-2-yl)azetidine-1-carboxylate] | 11.4 | 7.66
COC(=O)N1CC(n2nnc(-c3ccc(C)c(NC(=O)c4cnn5ccc(NCCOC(C)(C)C)cc45)c3)n2)C1 [Example 93, methyl 3-(5-(3-(5-((2-(tert-butoxy)ethyl)amino)pyrazolo[1,5-a]pyridine-3-carboxamido)-4-methylphenyl)-2H-tetrazol-2-yl)azetidine-1-carboxylate] | 11.4 | 7.54
COC(=O)N1CC(n2nnc(-c3ccc(C)c(NC(=O)c4cnn5ccc(NC[C@H](C)O)cc45)c3)n2)C1 [Example 94, methyl (S)-3-(5-(3-(5-((2-hydroxypropyl)amino)pyrazolo[1,5-a]pyridine-3-carboxamido)-4-methylphenyl)-2H-tetrazol-2-yl)azetidine-1-carboxylate] | 22.3 | 6.88
COC(=O)N1CC(n2nnc(-c3ccc(C)c(NC(=O)c4cnn5ccc(NCC6CCO6)cc45)c3)n2)C1 (stereo not drawn) [Example 95, methyl 3-(5-(4-methyl-3-(5-((oxetan-2-ylmethyl)amino)pyrazolo[1,5-a]pyridine-3-carboxamido)phenyl)-2H-tetrazol-2-yl)azetidine-1-carboxylate] | 21.5 | 7.52
COC(=O)N1CC(n2nnc(-c3ccc(C)c(NC(=O)c4cnn5ccc(NCC(C)(C)OC)cc45)c3)n2)C1 [Example 96, methyl 3-(5-(3-(5-((2-methoxy-2-methylpropyl)amino)pyrazolo[1,5-a]pyridine-3-carboxamido)-4-methylphenyl)-2H-tetrazol-2-yl)azetidine-1-carboxylate] | 9.5 | 7.43
COC(=O)N1CC(n2nnc(-c3ccc(C)c(NC(=O)c4cnn5ccc(N6CC[C@@H](N(C)C)C6)cc45)c3)n2)C1 [Example 97, methyl (R)-3-(5-(3-(5-(3-(dimethylamino)pyrrolidin-1-yl)pyrazolo[1,5-a]pyridine-3-carboxamido)-4-methylphenyl)-2H-tetrazol-2-yl)azetidine-1-carboxylate] | 23.2 | 6.95
COC(=O)N1CC(n2nnc(-c3ccc(C)c(NC(=O)c4cnn5ccc(N6CC7(COC7)C6)cc45)c3)n2)C1 [Example 98, methyl 3-(5-(3-(5-(2-oxa-6-azaspiro[3.3]heptan-6-yl)pyrazolo[1,5-a]pyridine-3-carboxamido)-4-methylphenyl)-2H-tetrazol-2-yl)azetidine-1-carboxylate] | 15.5 | 7.32

The next molecules have a higher pIC50 [2] than those just listed; values first:

efflux ratio at 2 h, 1 µM [1] | pIC50 [2] | Compound
4 | 7.94 | COCCNc1ccn2ncc(C(=O)Nc3cc(-c4nnn([C@H]5C[C@@H](C(F)(F)F)C5)n4)c(F)cc3C)c2c1 [Example 108, N-(4-fluoro-2-methyl-5-(2-((1s,3s)-3-(trifluoromethyl)cyclobutyl)-2H-tetrazol-5-yl)phenyl)-5-((2-methoxyethyl)amino)pyrazolo[1,5-a]pyridine-3-carboxamide]
13.1 | 8.02 | Cc1ccc(-c2nnn(C3CC(F)(F)C3)n2)cc1NC(=O)c1cnn2ccc(N3CC[C@@H](O)C3)cc12 [Example 78, (R)-N-(5-(2-(3,3-difluorocyclobutyl)-2H-tetrazol-5-yl)-2-methylphenyl)-5-(3-hydroxypyrrolidin-1-yl)pyrazolo[1,5-a]pyridine-3-carboxamide]
4 | 8.04 | COC(=O)N1CC(c2cnn(-c3ccc(C)c(NC(=O)c4cnn5ccc(N6CCOCC6)cc45)c3)n2)C1 [Example 80, methyl 3-(2-(4-methyl-3-(5-morpholinopyrazolo[1,5-a]pyridine-3-carboxamido)phenyl)-2H-1,2,3-triazol-4-yl)azetidine-1-carboxylate]
37.4 | 8.24 | Cc1ccc(-c2nnn([C@H]3C[C@@H](C(F)(F)F)C3)n2)cc1NC(=O)c1cnn2ccc(N3CCN(CCO)CC3)cc12 [Example 106, 5-(4-(2-hydroxyethyl)piperazin-1-yl)-N-(2-methyl-5-(2-((1s,3s)-3-(trifluoromethyl)cyclobutyl)-2H-tetrazol-5-yl)phenyl)pyrazolo[1,5-a]pyridine-3-carboxamide]
28.9 | 8.26 | Cc1ccc(-c2nnn([C@H]3C[C@@H](C(F)(F)F)C3)n2)cc1NC(=O)c1cnn2ccc(N3CC(C)(O)C3)cc12 [Example 107, 5-(3-hydroxy-3-methylazetidin-1-yl)-N-(2-methyl-5-(2-((1s,3s)-3-(trifluoromethyl)cyclobutyl)-2H-tetrazol-5-yl)phenyl)pyrazolo[1,5-a]pyridine-3-carboxamide]
16 | 8.28 | Cc1ccc(-c2nnn(C3CC(F)(F)C3)n2)cc1NC(=O)c1cnn2ccc(NCCO)cc12 [Example 101, N-(5-(2-(3,3-difluorocyclobutyl)-2H-tetrazol-5-yl)-2-methylphenyl)-5-((2-hydroxyethyl)amino)pyrazolo[1,5-a]pyridine-3-carboxamide]
15.4 | 8.31 | Cc1cc(F)c(-c2nnn([C@H]3C[C@@H](C(F)(F)F)C3)n2)cc1NC(=O)c1cnn2ccc(N3CCC(C)(O)CC3)cc12 [Example 109, N-(4-fluoro-2-methyl-5-(2-((1s,3s)-3-(trifluoromethyl)cyclobutyl)-2H-tetrazol-5-yl)phenyl)-5-(4-hydroxy-4-methylpiperidin-1-yl)pyrazolo[1,5-a]pyridine-3-carboxamide]
